Data: patent US20080311266A1, “Salt Enhancement” (priority 2007, published 2008)

Tests used:
tasting panel = experiment: Tasting panel test of perceived saltiness in salt-reduced broth; format: in vivo; settings: for Level at which saltiness increase perceived / Effect on the perceived saltiness: salt-reduced broth, tasting panel; for Effect on the perceived saltiness: in words; for Upper threshold value for salt enhancement: stated in description
Procedure: A variety of compounds (listed in the table above) was tested in a salt-reduced broth. The compounds concerned were simply added to samples of the broth in a variety of concentrations and stirred in. The samples were tested by their being submitted to a tasting panel, which recorded its perceptions as to which sample (and therefore at what level of compound) a perception of increased saltiness was observed. The results are recorded in the table in the specification above.

[1] = Cooling threshold (level at which cooling effect detected); format: in vivo

| Structure (SMILES) | Level at which saltiness increase perceived (tasting panel) | Effect on the perceived saltiness (tasting panel) | Upper threshold value for salt enhancement (tasting panel) | Threshold level at which cooling effect detected - estimated [1] |
| --- | --- | --- | --- | --- |
| CC1CCC(C(C)C)C(C(=O)Nc2ccc(CC#N)cc2)C1 (stereo not shown) [Compound 1, N-(4-cyanomethylphenyl) p-menthanecarboxamide] | 0.005 ppm | considerably greater effect | 0.005 ppm | 0.08 ppm |
| CC(C)[C@@H]1CC[C@@H](C)C[C@H]1C(=O)NCCc1ccccn1 [Compound 2, (1R,2S,5R)-2-isopropyl-5-methyl-N-(2-(pyridin-2-yl)ethyl)cyclohexanecarboxamide] | 0.005 ppm | considerably greater effect | 0.005 ppm | 0.08 ppm |
| CC1CCC(C(C)C)C(O)C1 (stereo not shown) [Menthol, menthol] | 0.05 ppm |  |  | 1.5 ppm |
| CCNC(=O)C1CC(C)CCC1C(C)C (stereo not shown) [WS3] | 0.05 ppm |  |  | 1 ppm |
| CNC(=O)C(C)(C(C)C)C(C)C [WS23] | 0.05 ppm |  |  | 1.5 ppm |
| CC1CCC(C(C)C)C(OC(=O)C(C)O)C1 (stereo not shown) [menthyl lactate] | 0.05 ppm |  |  | 0.8 ppm |
